Data set [1] is described as follows: Boron biodistribution in intracranial glioma mouse model (ICP-AES). The class given is in vivo. The procedure:
The glioma mouse model was established as reported recently ([16]). HS683 cells were transfected with luciferase-expressing vector (Lenti-UTR-Luc-Blank Vector; Promega). BALB/c nude mice were anesthetized by intraperitoneal injection of tribromoethanol (150 mg/kg) and then placed in a stereotaxic instrument. A hole was made in the mouse skull and 5 μL of HS683 cell suspension (2 × 10^7 cells/mL) was injected into the brain using the stereotaxic instrument. The growth state of glioma tumours in mice was monitored by bioluminescent imaging (IVIS 3D Perkin Elmer). Animal experiments were performed according to the protocols approved by the Animal Use Review Board and Ethical Committee of Shenzhen Bay Laboratory (permit no. AFRQS202101). After treatment with boronated peptides or BPA (HEC Pharm, Dongguan, China), boron concentrations in human cells or mice tissues were measured by inductively coupled plasma atomic emission spectroscopy (abbr., ICP-AES; Leeman’s Prodigy 7) using published methods ([16]). Proper microenvironmental components are critical for the treatment response of glioma ([19], [20]). Thus, we constructed an intracranial mouse glioma model based on HS683 cells and a research plan based on this model for testing ANG-B effects (Figure 3A). In order to monitor the intracranial tumour growth, we used luciferase-expressing cells for this mouse model (Supplementary Figure S5A). Boron biodistribution was examined at the time point for thermal neutron irradiation. 2.5 mM/kg of ANG-B or BPA (in 5% fructose solution) was injected into mice, and tissues or organs from the tumour, blood, brain, lung, liver, heart, spleen, and kidney were then collected at indicated time points for measuring boron concentrations (Supplementary Figure S5B). […] At 4 h after drug injection, the T/N ratio of ANG-B was 5.61 ± 1.0 and the T/B ratio was 9.42 ± 2.47.

Data set [2] concerns HS683 intracranial glioma. The experiment in a line: In vivo BNCT in intracranial glioma mouse model, 18F-FDG PET/CT. The note with it: for SUV (18F-FDG uptake) in tumour tissues after BNCT, compared to control group: PET/CT, p < 0.05. The procedure:
The glioma mouse model was established as reported recently ([16]). HS683 cells were transfected with luciferase-expressing vector (Lenti-UTR-Luc-Blank Vector; Promega). BALB/c nude mice were anesthetized by intraperitoneal injection of tribromoethanol (150 mg/kg) and then placed in a stereotaxic instrument. A hole was made in the mouse skull and 5 μL of HS683 cell suspension (2 × 10^7 cells/mL) was injected into the brain using the stereotaxic instrument. The growth state of glioma tumours in mice was monitored by bioluminescent imaging (IVIS 3D Perkin Elmer). Animal experiments were performed according to the protocols approved by the Animal Use Review Board and Ethical Committee of Shenzhen Bay Laboratory (permit no. AFRQS202101).
During BNCT, five mice per group were injected with 2.5 mM/kg of BPA (5% fructose solution) or ANG-B solution through the tail vein. 90 min later, mice were anesthetized with an intraperitoneal injection of tribromoethanol at a dose of 150 mg/kg and then fixed in a mould for BNCT irradiation of the mouse head using a published method ([16]). Mice were treated with 2 kW of neutron flux for 2 h each time and four times for each mouse in 1 week, to achieve a total neutron flux of 12.5 ± 0.5 × 10^11 n/cm^2. Mice were anesthetized with 2% isoflurane at 25°C and imaged with PET/CT (nanoSCAN, Mediso) with 1.5 uCi/g ^18F-FDG at 1 day before or 31 days after BNCT. Image processing and analyses were performed by AMIDE (RRID: SCR_005940), where ROI, SUV values, and tumour volume were determined.
The glioma mouse model was further used in BCNT tests for ANG-B. The body weight of all the used mice was monitored during the whole process, where no obvious health issues with body weight loss were noticed (Supplementary Figure S6A). PET imaging is usually used to evaluate therapeutic response of glioma patients or mouse models ([16], [21], [22]). Therefore, we employed ^18F-FDG-based PET/CT to estimate intracranial tumour volume for each mouse 1 day before and 31 days after BNCT treatments (Figure 4A). An additional lower concentration of ANG-B at 1 mM/kg (i.e., ANG-B low) was included for comparison.

The conditions of data set [3]: melanoma patients; cited from earlier work. From the text: Boron delivery agent is one of the critical factors limiting the expansion of BNCT application in cancer treatment. An ideal boron delivery agent should be low toxicity, high tumour uptake, quick blood clearance, T/N ratio > 3, and low accumulation in healthy tissues. Unfortunately, no existing boron delivery agents can fulfil all these requirements. Historically, BPA is the most popular boron delivery agent in clinical BNCT. Cancer cells usually promote cellular amino acid transport and result in increased uptake of BPA, especially in melanoma cells ([27]). A study evaluated the biodistributi ...

The subject of data set [4] is U87MG cells. Kind of data set: Boron uptake in cells by ICP-AES. The class given is cell-based, human. To be noted: 0–0.8 mM for 12 h. The procedure: (§1) Cell lines established from human glioma (U87MG, U251, and HS683), melanoma (A375), non-small cell lung cancer (A549), and hepatocellular carcinoma (HepG2) were obtained from the National Infrastructure of Cell Line Resource in China, authenticated, and cultured in DMEM, supplemented with 10% fetal bovine serum (HyClone) and 100 IU/mL penicillin/streptomycin (all Sigma-Aldrich unless otherwise noted). Cells were routinely tested for mycoplasma using the Mycoplasma Test Kit (Cellorlab, China). All cells were maintained in a humidified incubator at 5% CO2 and 37°C after defrosting and cultured in the exponential growth phase before each experiment.
(§2) After treatment with boronated peptides or BPA (HEC Pharm, Dongguan, China), boron concentrations in human cells or mice tissues were measured by inductively coupled plasma atomic emission spectroscopy (abbr., ICP-AES; Leeman’s Prodigy 7) using published methods ([16]).
(§3) An efficient boron delivery agent should enhance boron uptake in cancer cells. Thus, we analyzed boron concentrations on 6 human cancer cell lines derived from glioma (U87MG, U251, and HS683), melanoma (A375), non-small cell lung cancer (A549), or hepatocellular carcinoma (HepG2) after treatment with various concentrations of ANG-B, TAT-B, or T7-B for 12 h. BPA was tested in parallel for comparison.
(§4) Figure 1 Boron concentrations in 6 human cell lines derived from glioma (U87MG, U251, and HS683), melanoma (A375), non-small cell lung cancer (A549), or hepatocellular carcinoma (HepG2). Cells were pre-exposed to 0–0.8 mM of ANG-B, TAT-B, T7-B, or BPA for 12 h. Boron concentrations were then analyzed by ICP-AES in HS683 (A), U251 (B), U87MG (C), A375 (D), HepG2 (E), or A549 cells (F). Mean values with standard errors are shown.

Data set [5] concerns HS683 cells. The experiment in a line: Clonogenic cell survival assay after BNCT (thermal neutron irradiation) in vitro. Format: cell-based, human. The note with it: 5 mM drug for 12 h, neutron flux 3.0 ± 0.4 × 10^11 n/cm^2 in 2 h, colonies after 2 weeks, mean ± SD, three biological repeats. The procedure: Thermal neutron radiation was given as described previously ([16]). A high-current proton beam (3.5 MeV) generated from a radio frequency quadrupole (RFQ) accelerator at the China Spallation Neutron Source was used to bombard a lithium target and produce thermal neutrons (0.5 eV-10 keV) for BNCT.
HS683 cells (10^6/sample) were prepared in centrifuge tubes (1.5 mL, Eppendorf) and treated with ANG-B, TAT-B, T7-B, or BPA at various concentrations (0.0–5.0 mM) for 12 h. Epithermal neutrons were given with a total neutron flux of 3.0 ± 0.4 × 10^11 n/cm^2 given in 2 h. The drug-containing medium was then washed off and desirable numbers of cells in single-cell suspension were seeded into 6-well plates to grow colonies in 2 weeks. Colonies were fixed in 70% ethanol at room temperature for 10 min, and stained with 0.1% crystal violet. Colonies with more than 50 cells were scored as clonogenic survivors.
BNCT eliminates cancer cells by heavy charged particle rays, where reproductive cell death plays a vital role in the treatment outcome ([17], [18]). Here we employed the clonogenic survival assay to analyze the reproductive cell death of glioma cells after BNCT treatment in vitro. To guarantee the performance of BNCT in vitro, we designed and manufactured a tube-holding device for thermal neutron irradiation of cells (Figure 2A). BNCT with these boron delivery agents were tested on HS683 cells. […] BNCT with 5 mM ANG-B caused 86.5% ± 5.3% of clonogenic cell death. […] Therefore, ANG-B was selected for the following in vivo study.

The test system of data set [6] is HS683 intracranial glioma. Kind of data set: TUNEL apoptosis assay in mouse tumours after BNCT. Format: in vivo. To be noted: 1 day or 7 days after treatment. Here is the method:
DNA fragmentation in apoptosis induced by BNCT was assessed using the one-step TUNEL apoptosis assay kit following the manufacturer’s protocol (Abbkine Scientific Co., Ltd., China).
In order to evaluate the ^18F-FDG uptake in tumour tissues under different treatment conditions, SUV data were calculated based on a reference region ([23]). […] Based on the 3D PET image data, we also estimated tumour volume before and after BNCT treatment for each mouse (Figure 4B). […] By contrast, tumour size in the control group kept increasing.
Supplementary Figure 6. In vivo effects of ANG-B based BNCT. (A) Body weight of glioma mouse model after treatment. (B) SUVmax analyses (indicating of FDG uptake) of glioma tumors in PET/CT imaging before and after BNCT treatment. (C) Apoptotic cells in tumor at 1 day or 7days after ANG-B based BNCT treatment as measured by TUNEL assay. Mann–Whitney U test; *p < 0.05.

In data set [7] the test system is A375 cells. Kind of data set: Boron uptake in cells by ICP-AES. Format: cell-based, human. To be noted: A375 cells (printed A357), 0–0.8 mM for 12 h, p < 0.05. The procedure: as §1, §2, §3, §4
In data set [8] the test system is HepG2 cells. The experiment in a line: Boron uptake in cells by ICP-AES. Format: cell-based, human. To be noted: 0–0.8 mM for 12 h, p < 0.05. The procedure:
as §1, §2, §3, §4

Data set [9] concerns HS683 cells. Kind of data set: Boron uptake in cells by ICP-AES. The class given is cell-based, human. To be noted: 0–0.8 mM for 12 h, p < 0.05. The procedure: as §1, §2, §3, §4
Setting [10] is: glioma mouse model, 2.5 mM/kg in 5% fructose solution, time not stated.
The mark [11] stands for this setting: 4 h after tail-vein injection of 2.5 mM/kg, intracranial HS683 glioma mice, ICP-AES, three mice per group.

Turning to `N[C@@H](Cc1ccc([10B](O)O)cc1)C(=O)O` [BPA, ^10B-p-boronophenylalanine, reference compound], in [1] (setting [10]), the “T/B ratio of boron” value is recorded as “approximately 2” and the “T/N ratio of boron” value was “approximately 2”. Besides, the “SUV (18F-FDG uptake) in tumour tissues after BNCT, compared to control group” value in [2] (2.5 mM/kg) is on record as “significantly decreased SUV”. Moreover, in data set [3], the T/N ratio was 3.40 and the skin-to-blood ratio is recorded as 1.31. For the same compound, the “boron uptake compared with boronated peptides” value in [4] is “took up more BPA”. In addition, the “clonogenic cell death after BNCT” value in data set [5] is listed as 73.3% ± 6.0%.

Consider “MASMTGGQQMG [T7-B, boron-peptide conjugate used as control]”, for which the “clonogenic cell death after BNCT” value in [5] was 54.5% ± 1.1%.

As to “TFFYGGSRGKRNNFKTEEYC [ANG-B, N-terminal boron-containing derivative of angiopep-2 with 10B-4-carboxyphenylboronic acid at N terminus and cysteine at C terminus]”, in [1] (2.5 mM/kg tail vein, 1, 2, 4 or 6 h, glioma mouse model), the “glioma-targeting effects and blood clearance compared with BPA” value is reported as “significantly better”. The “Tumour/blood (T/B) ratio of boron” value in data set [1] (setting [11]) is 9.42 ± 2.47. Also, in [1] (setting [11]), the “Tumour/normal (T/N) tissue ratio of boron” value is given as 5.61 ± 1.0. Further, the “SUV (18F-FDG uptake) in tumour tissues after BNCT, compared to control group” value in data set [2] (1 mM/kg (ANG-B low)) and in data set [2] (2.5 mM/kg) was “significantly decreased SUV” in each case. Further, the “tumour volume at 31 days after BNCT treatment” value in data set [2] (2.5 mM/kg, 18F-FDG PET imaging before and after BNCT) is listed as “significantly decreased tumour volume”. For the same compound, the “apoptotic cells in mouse tumours after BNCT” value in [6] is “more apoptotic cells”. The “boron uptake compared with BPA” value in data set [7], in data set [8] and in data set [9] was “significantly more boron uptake than BPA” throughout. The “clonogenic cell death after BNCT” value in data set [5] is reported as 86.5% ± 5.3%.

The record behind these values is PMC10267362, “Boron-peptide conjugates with angiopep-2 for boron neutron capture therapy” (Frontiers in Medicine, 2023).
